Literature values as cited in patent US20070232813A1, “Substituted Cyclohexadienals - Syntheses and Applications” (priority 2006, published 2007).

Tests used:
[1] = tested on: Roseobacter sp.; conditions: at 100 μg, agar diffusion assay
[2] = tested on: Sulfitobacter sp.; conditions: at 100 μg, agar diffusion assay

SMILES: CC(C)=CCCC1=CC=C(C=O)C(C)(CCC=C(C)C)C1 (centres unmarked) [citral dimer B, 6-Methyl-4,6-bis-(4-methyl-pent-3-enyl)-cyclohexa-1,3-dienecarbaldehyde]
- inhibition (anti-bacterial activity against Roseobacter sp.) [1]: 0.5 cm
- inhibition (anti-bacterial activity against Sulfitobacter sp.) [2]: 1.0 cm
